From patent US12172988B2, “Anticancer and antifungal splice modulators” (priority 2021, dated 2024)
Where two headings read alike, the source gives them in different places.

Columns and labels:
[1] = test system: HCT116 colorectal carcinoma cells; assay: MTS cell viability / cell growth inhibition assay; type: cell-based, human; conditions: for cell growth inhibitory activity compared to FD-895: HCT-116 cells; for GI50: Homo sapiens, HCT-116, 72 h
Description: With milligram quantities of 1a-1i at hand, we began our studies to evaluate the relative efficacy of each analogue using cell growth inhibition studies in HCT116 colorectal carcinoma cells. As reported in FIG. 3, GI50 values were collected for each analog after a 72 h treatment using the MTS cell viability assay (Table 12). Under these conditions, the natural FD-895 (1), 3S-FD-895 (1a) 17S-FD-895 (1d), 17-methoxy-FD-895 (1e) provided activities of <10 nM.
HCT-116 cells was cultured in McCoy's 5a (Life Technologies) supplemented with 10% fetal bovine serum (FBS), 2 mM L-glutamine, and 100 U mL^−1 of penicillin and 100 μg mL^−1 of streptomycin at 37° C. in an atmosphere of 5% CO2. Compounds were dissolved in DMSO (MilliporeSigma). Cells were treated with 1-1j in media with ≥0.5% DMSO for 4-72 h.
Studies were conducted in […] cell culture plates. HCT-116 plated at 5×10^3 cells/well were cultured for 24 h and then treated with analogs 1-1j for 4-72 h, then washed twice with 100 μL PBS. PBS (100 μL) was added to each well, followed by 20 μL of CellTiter Aqueous One Solution (Promega). After 2 h at 37° C., absorbance readings were taken at 490 nm (test wavelength) and 690 nm (reference wavelength). GI50 values were calculated in Prism (GraphPad) using greater 3 replicates.
(§1) Cells were treated with 1 or 1a-1j in media (McCoy's 5a (Life Technologies) supplemented with 10% FBS, 2 mM L-glutamine, and 100 U mL^−1 of penicillin and 100 μg mL^−1 of streptomycin 0.5% DMSO) for 4 h or 24 h. Untreated cells were considered were used as negative control. Total RNA was isolated using mirVana miRNA isolation kit (Life Technologies). A 1 μg sample of RNA was subjected to DNAseI from a TURBO DNA free kit (Life Technologies). The cDNA was prepared by using SuperScript III reverse transcriptase kit (Life Technologies). The amount of unspliced RNA for different genes was determined using Power SYBR Green PCR master mix (Applied Biosystems) by qPCR using specific primers for each gene. qPCR using 2.5 μM of each primer was performed on 5 ng of the obtained cDNA. qPCR conditions were as follows: 95° C. for 10 min for one cycle, then 95° C. for 10 min for one cycle, then 95° C. for 30 s, 55° C. for 60 s, 72° C. for 60 s, for 40 cycles using the MXPro. Quantification cycle (Cq) values were identified for each sample, and then RNA levels were calculated using 2-ΔΔCT method. GAPDH was used as a control for normalization. At least three replicates were conducted for each compound. Namely, all genes explored in this study were evaluated from the same cell cultures. Here, individual cultures were used for each compound explored and at least three replicates were used for each compound. While experimental variation occurred between the different compound treatments, the levels of the different intron retention, exon skipping or RNA expression were collected from the same cellular material. Statistics were calculated using a standard one-way ANOVA; p values were represented so that * signifies p<0.0001. HCT116 were treated with analogs 1-1j ranging from 0.1-5000 nM for 72 hours, then cell viability was measured using the MTS assay. GI50 values and confidence intervals were calculated using GraphPad (Table 12).

PLK-1 = assay: qPCR splicing analysis, PLK-1 exon skipping / RNA expression; type: cell-based, human; conditions: HCT116, 4 h, 20 times GI50, qPCR
Description: (§2) HCT116 tumor cells were treated with each analogue at 20 times the G150 value (Table 12) for 4 hours and then cellular RNA was isolated and purified for qPCR. Primers were designed to evaluate intron retention or exon skipping, direct responses to splice modulator treatment. Genes evaluated included those involved in splicing regulation (SF3A1, SF3A3, SF3B1, SF3B2), apoptosis (MCL-1L), protein folding (DNAJB1), and cell cycle regulation (AURKA, PLK-1) relative to the unspliced control GAPDH. For alternative splicing regulator (SF2), primers were designed to evaluate gene expression, which changes in response splice modulator treatment for SF2 relative to the unspliced control GAPDH. (−) denotes untreated cells.
(§3) Next, we turned our efforts to explore the ability of these analogues to modulate splicing. […] We treated cells for 4 h so that we could evaluate early changes in splicing activity, and then cellular RNA was isolated and purified for analyses by qPCR (FIG. 14). Most importantly, none of the concentrations tested led to significant changes in cell viability, ensuring that changes in gene expression were not due to cell death.
(§4) For these studies, we evaluated the expression of genes involved in splicing regulation (SF3A1, SF3A3, SF3B1, SF3B2), apoptosis (MCL-1L), protein folding (DNAJB1), and cell cycle regulation (AURKA, PLK-1) relative to the unspliced control GAPDH. Primers were designed to evaluate intron retention or exon skipping, direct responses to splice modulator treatment. The master splicing regulator alternative splicing factor (SF2) was also evaluated, with the primers for this gene designed to evaluate overall gene expression, which changes in response to splice modulator treatment.
(§5) From this 4 h study (FIG. 14), a small set of analogs (1, 1b, 1g, 1d, 1e, 1i and 1j) were selected to evaluate if effects on splicing when presented for a longer 24 h period. […] Using identical procedures as that used for 4 h, HCT116 cells were treated with three concentrations (100 nM, 250 nM and 500 nM) of each analog for 24 h. Multiple concentrations were used as a means to check further validate the use of the GI50 concentration in our prior study (FIG. 14). As before, none of the concentrations tested led to significant changes in cell viability over the 24-hour time window, ensuring that changes in gene expression were not due to cell death.
Cells were treated with 1 or 1a-1j in media (McCoy's 5a (Life Technologies) supplemented with 10% FBS, 2 mM L-glutamine, and 100 U mL^−1 of penicillin and 100 μg mL^−1 of streptomycin 0.5% DMSO) for 4 h or 24 h. Untreated cells were considered were used as negative control. Total RNA was isolated using mirVana miRNA isolation kit (Life Technologies). A 1 μg sample of RNA was subjected to DNAseI from a TURBO DNA free kit (Life Technologies). […] The amount of unspliced RNA for different genes was determined using Power SYBR Green PCR master mix (Applied Biosystems) by qPCR using specific primers for each gene. qPCR using 2.5 μM of each primer was performed on 5 ng of the obtained cDNA. qPCR conditions were as follows: 95° C. for 10 min for one cycle, then 95° C. for 10 min for one cycle, then 95° C. for 30 s, 55° C. for 60 s, 72° C. for 60 s, for 40 cycles using the MXPro. Quantification cycle (Cq) values were identified for each sample, and then RNA levels were calculated using 2-ΔΔCT method. […] Namely, all genes explored in this study were evaluated from the same cell cultures. […]

SF2 = assay: qPCR gene expression of alternative splicing factor SF2; type: cell-based, human; conditions: HCT116, 4 h, 20 times GI50, qPCR
Description: as §2
as §2, with “analogues” for “each analogue”, “100 nM (light grey), 250 nM (grey), or 500 nM (black)” for “20 times the G150 value (Table 12)”, “24 h” for “4 hours”, “(MCL-1L), and” for “(MCL-1L),”, “(DNAJB1),” for “(DNAJB1), and cell cycle regulation (AURKA, PLK-1)”, “(—)” for “(−)”
as §3, §4
From this 4 h study (FIG. 14), a small set of analogs (1, 1b, 1g, 1d, 1e, 1i and 1j) were selected to evaluate if effects on splicing when presented for a longer 24 h period. […] Using identical procedures as that used for 4 h, HCT116 cells were treated with three concentrations (100 nM, 250 nM and 500 nM) of each analog for 24 h. […]

HCT116 tumor cells = assay: qPCR structure-splicing profile over the gene panel; type: cell-based, human; conditions: HCT116, 24 h, 100, 250, 500 nM, compared to 1
Description: as §2, with “analogues” for “each analogue”, “100 nM (light grey), 250 nM (grey), or 500 nM (black)” for “20 times the G150 value (Table 12)”, “24 h” for “4 hours”, “(MCL-1L), and” for “(MCL-1L),”, “(DNAJB1),” for “(DNAJB1), and cell cycle regulation (AURKA, PLK-1)”, “(—)” for “(−)”
as §4, §5, §1

[2] = estimated, based on E7107; cited from earlier work
DNAJB1 = assay: qPCR splicing analysis, DNAJB1 intron retention; type: cell-based, human; conditions: HCT116, 4 h, 20 times GI50, qPCR relative to GAPDH
Description: as §2
as §2, with “analogues” for “each analogue”, “100 nM (light grey), 250 nM (grey), or 500 nM (black)” for “20 times the G150 value (Table 12)”, “24 h” for “4 hours”, “(MCL-1L), and” for “(MCL-1L),”, “(DNAJB1),” for “(DNAJB1), and cell cycle regulation (AURKA, PLK-1)”, “(—)” for “(−)”
as §3, §4, §5
(§6) Cells were treated with 1 or 1a-1j in media (McCoy's 5a (Life Technologies) supplemented with 10% FBS, 2 mM L-glutamine, and 100 U mL^−1 of penicillin and 100 μg mL^−1 of streptomycin 0.5% DMSO) for 4 h or 24 h. Untreated cells were considered were used as negative control. Total RNA was isolated using mirVana miRNA isolation kit (Life Technologies). […]

SF3A1 = assay: qPCR splicing analysis, SF3A1 intron retention; type: cell-based, human; conditions: HCT116, 4 h, 20 times GI50, qPCR relative to GAPDH
Description: as §2
as §2, with “analogues” for “each analogue”, “100 nM (light grey), 250 nM (grey), or 500 nM (black)” for “20 times the G150 value (Table 12)”, “24 h” for “4 hours”, “(MCL-1L), and” for “(MCL-1L),”, “(DNAJB1),” for “(DNAJB1), and cell cycle regulation (AURKA, PLK-1)”, “(—)” for “(−)”
as §3, §4, §5
as §6, with “Technologies). A 1 μg sample of RNA was subjected to DNAseI from a TURBO DNA free kit (Life Technologies). The cDNA was prepared by using SuperScript III reverse transcriptase kit (Life Technologies).” for “Technologies).”

AURKA = assay: qPCR splicing analysis, AURKA exon skipping / expression; type: cell-based, human; conditions: HCT116, 4 h, 20 times GI50, qPCR
Description: as §2
Next, we turned our efforts to explore the ability of these analogues to modulate splicing. […] We treated cells for 4 h so that we could evaluate early changes in splicing activity, and then cellular RNA was isolated and purified for analyses by qPCR (FIG. 14). […]
as §4, with “Primers were designed to evaluate intron retention or exon skipping, direct responses to splice modulator treatment.” left out, “treatment. […]” for “treatment.”
Cells were treated with 1 or 1a-1j in media (McCoy's 5a (Life Technologies) supplemented with 10% FBS, 2 mM L-glutamine, and 100 U mL^−1 of penicillin and 100 μg mL^−1 of streptomycin 0.5% DMSO) for 4 h or 24 h. […] The amount of unspliced RNA for different genes was determined using Power SYBR Green PCR master mix (Applied Biosystems) by qPCR using specific primers for each gene. qPCR using 2.5 μM of each primer was performed on 5 ng of the obtained cDNA. qPCR conditions were as follows: 95° C. for 10 min for one cycle, then 95° C. for 10 min for one cycle, then 95° C. for 30 s, 55° C. for 60 s, 72° C. for 60 s, for 40 cycles using the MXPro. […]

SF3B2 = assay: qPCR splicing analysis, SF3B2 intron retention; type: cell-based, human; conditions: HCT116, 4 h, 20 times GI50, qPCR relative to GAPDH
Description: as §2
as §2, with “analogues” for “each analogue”, “100 nM (light grey), 250 nM (grey), or 500 nM (black)” for “20 times the G150 value (Table 12)”, “24 h” for “4 hours”, “(MCL-1L), and” for “(MCL-1L),”, “(DNAJB1),” for “(DNAJB1), and cell cycle regulation (AURKA, PLK-1)”, “(—)” for “(−)”
as §3, §4, §5
as §6, with “Technologies). A 1 μg sample of RNA was subjected to DNAseI from a TURBO DNA free kit (Life Technologies). The cDNA was prepared by using SuperScript III reverse transcriptase kit (Life Technologies).” for “Technologies).”

Compound | cell growth inhibitory activity compared to FD-895 [1] | effect on exon 3 inclusion in PLK-1 (PLK-1) | down regulating the expression of SF2 RNA (SF2) | splicing activity over the genes tested (HCT116 tumor cells) | human maximum tolerated dose (MTD) [2] | GI50 ([1]; read-out: GI50 value) | GI50 ([1]; read-out: GI50 value (text)) | DNAJB1 intron 2 retention (level of intron retention) (DNAJB1) | SF3A1 intron 6 retention (level of intron retention) (SF3A1) | effect on exon 4 skipping in AURKA (AURKA) | fold less active (GI50) than 1 ([1]; HCT116 cell growth inhibition, compared to 1) | SF3B2 intron retention (level of intron retention) (SF3B2)
CCC(OC)C(C)C1OC1C(O)C(C)/C=C/C=C(\C)C1OC(=O)CC(O)CCC(C)(O)C(OC(C)=O)/C=C/C1C (centres unmarked) [Analog 1, FD-895, reference compound] | potent cell growth inhibitor | most potent effect | highest efficacy | altered the splicing of many of the genes tested | 4 mg/m^2 |  |  |  |  |  |  | 
CC[C@H](OC)[C@@H](C)[C@H]1O[C@@H]1[C@H](O)[C@H](C)/C=C/C=C(\C)[C@H]1OC(=O)C[C@H](O)CC[C@@](C)(O)[C@@H](OC(C)=O)/C=C/[C@@H]1C [Analog 1, FD-895, reference compound] |  |  |  |  |  | 1.72 nM |  |  |  |  |  | 
CC[C@H](OC)[C@@H](C)[C@H]1O[C@@H]1[C@H](O)[C@H](C)/C=C/C=C(\C)[C@H]1OC(=O)C[C@@H](O)CC[C@@](C)(O)[C@@H](OC(C)=O)/C=C/[C@@H]1C [Analog 1a, 3S-FD-895] | compromised activity |  |  |  |  | 2.21 nM | < 10 nM | highest level of intron retention | more effective than 1 | most potent effect |  | 
CC[C@H](OC)[C@@H](C)[C@H]1O[C@@H]1[C@H](O)[C@H](C)/C=C/C=C(\C)[C@H]1OC(=O)C[C@H](O)CC[C@@](C)(O)[C@H](OC(C)=O)/C=C/[C@@H]1C [Analog 1b, 7R-FD-895] | compromised activity |  |  | loss of splicing activity when compared to 1 |  | 432 nM |  |  |  |  | 250 fold | improved efficacy
